Experimental data from patent publication US20250382298A1, “NITROGEN-CONTAINING COMPOUND AND USE THEREOF” (SUZHOU GENHOUSE BIO CO., LTD., priority 2022, published 2025).
Read-outs that look alike come from different tables or passages of the source.

Experiments:
OVCAR3 cells [1] = test: Detection of OVCAR3 cell proliferation activity by CTG method; type: cell-based; conditions: Homo sapiens, OVCAR-3, 168 h, CellTiter-Glo, 7 days
Source text: (§1) This assay can be used to examine the potency of compounds in inhibiting the proliferation of tumor cells (OVCAR3, HT-29, BT-549, HCT-116). A lower IC50 value indicates high potency of the compound as a KIF18A inhibitor in the following assay setup,
1640 medium; fetal bovine serum; penicillin/streptomycin antibiotics purchased from Wisent; CellTiter-Glo (chemiluminescence detection reagent for cell viability) reagent purchased from Promega; OVCAR3 cell line purchased from Nanjing Cobioer Biosciences Co., Ltd.; Nivo multimode microplate reader (PerkinElmer),
OVCAR3 cells were seeded into a white 96-well plate, with 80 μL of cell suspension containing 2000 OVCAR3 cells added to each well. The cell plate was incubated in a CO2 incubator overnight.
A test compound was 5-fold diluted to the 8th concentration (i.e., from 2 mM to […]) using a multichannel pipette, with duplicate wells set up. To an intermediate plate was added 78 μL of medium, and the serially diluted compound was transferred to the corresponding wells of the intermediate plate at 2 μL/well. The mixture was mixed well and then transferred to the cell plate at 20 μL/well. The concentration of the compound transferred to the cell plate ranged from 10 μM to 0.026 nM. The cell plate was incubated in a CO2 incubator for 7 days. Another cell plate was prepared and read for signal values on the day of compound addition, and these values were used as the maximum values (the Max value in the equation below) in data analysis. To this cell plate was added the chemiluminescence detection reagent for cell viability at 25 μL/well, and the luminescence signals were stabilized by incubation at room temperature for 10 min. Readings were taken using the multimode microplate reader.
To the cell plate was added the chemiluminescence detection reagent for cell viability at 25 μL/well, and the luminescence signals were stabilized by incubation at room temperature for 10 mm. Readings were taken using the multimode microplate reader, […]

OVCAR3 cells [2] = test: Detection of cell proliferation activity by CCK8 method (OVCAR3); type: cell-based; conditions: Homo sapiens, OVCAR-3, CCK8, 96 h
Source text: as §1
(§2) McCoy's 5A medium purchased from Sangon Biotech; CCK8 kit purchased from Beyotime; OVCAR3, HT-29, HCT-116, and BT-549 cells purchased from Shanghai Fuheng Biotechnology Co., Ltd.; multimode microplate reader (Thermo).
(§3) Cells at the logarithmic growth phase were taken, digested with a cell lysis buffer (trypsin), centrifuged, counted, and seeded into a 96-well plate at an appropriate cell density (BT549: 1500 cells/well in 1640 medium. HT-29 and HCT-116: 2000 cells/well in McCoy's 5A medium), with 180 μL per well, for a total of 60 wells. The surrounding wells were filled with an equal amount of PBS to prevent water evaporation from the edge wells. The next day after cell plating, the test compounds at different concentration gradients (with an initial final concentration of 10 μM, diluted in a 1:5 gradient to obtain 9 concentration gradients) were added to the wells. Three replicate wells were set up for each concentration point, and a corresponding DMSO negative control group was also set up. Detection: After 96 h of drug treatment, the test cell culture plate was removed from the incubator. All the liquid in the 96-well plate was aspirated, and 100 μL of medium containing 10% CCK8 solution was added to each well. The plate was then incubated at 37° C. for 2 h (the OD450 of the DMSO group reached 1.5 or more), and the absorbance at 450 nm was measured using a microplate reader
(§4) After the background value was subtracted from the measurement for each well, the inhibition rate was calculated. Inhibition Rate (%)=(1−Sample/Vehicle)×100. Sample is the luminescence value of the drug treatment group, and Vehicle is the luminescence value of the DMSO control group. A sigmoidal dose-survival rate curve was plotted using a non-linear regression model in the GraphPad Prism 7.0 software, and the IC50 values were calculated.

HT-29 cells [3] = test: Mitotic index analysis, pH3 expression in HT-29 cells; type: cell-based, human; conditions: Homo sapiens, 24 h treatment
Method: (§5) HCT-116 and HT-29 cells at the logarithmic growth phase were taken, digested with a cell lysis buffer (trypsin), centrifuged, counted, and seeded into a 96-well plate at an appropriate cell density (20000 cells/well), with 100 μL per well. The surrounding wells were filled with an appropriate amount of PBS to prevent water evaporation. The next day, the cells were treated with the compounds at different concentrations (with a starting concentration of 10 μM, 3-fold diluted to obtain 9 concentration gradients). After 24 h, the medium was aspirated, and the cells were washed twice with 100 μL of PBS. The cells were then fixed with 4% paraformaldehyde and incubated at room temperature for 15 min. The fixative solution was discarded, and the cells were washed with PBS. Then, 150 μL of specialized blocking solution (containing 1% Triton-100) was added to each well for blocking at room temperature for 2 h, and the plate was washed with PBS to remove excess blocking solution. Anti-phistone H3 (pH3) was diluted at a ratio of 1:1000 with a blocking solution containing 0.033% Triton-100, and a blank control group was set up. Then, incubation was performed at 4° C. overnight. The next day, the plate was washed twice with 1×PBST. Anti-rabbit-IgG (H+L) (CST) and DRAQ5 (Thermofisher) were each diluted at an appropriate ratio with a blocking solution containing 0.033% Triton-100 (secondary antibody: 1:2000; DRAQ5: 1:10000). Then, incubation was performed at room temperature for 2 h. The plate was washed twice with 1×PBST and once with PBS. Fluorescence signals at 700 nm and 800 nm were detected using a Li—COR Odyssey two-color near-infrared laser imager. Calculation was performed as follows: pH3 expression (%)=(Cmpd dose/DMSO control)×100. Cmpd dose is the value of the drug treatment group, and DMSO control is the value of the DMSO control group. The EC50 values were determined by fitting using the GraphPad Prism 7.0 software.

HCT-116 cells [4] = test: Mitotic index analysis, pH3 expression in HCT-116 cells; type: cell-based; conditions: Homo sapiens, 24 h treatment
Method: as §5

BT-549 cells = test: Detection of cell proliferation activity by CCK8 method (BT-549); type: cell-based; conditions: Homo sapiens, CCK8, 96 h
Source text: as §1, §2, §3, §4

HT-29 cells [5] = test: Detection of cell proliferation activity by CCK8 method (HT-29); type: cell-based, human; conditions: Homo sapiens, CCK8, 96 h
Source text: as §1, §2, §3, §4

HCT-116 cells [6] = test: Detection of cell proliferation activity by CCK8 method (HCT-116); type: cell-based; conditions: Homo sapiens, CCK8, 96 h
Source text: as §1, §2, §3, §4

[7] = Pharmacokinetic test in mice; type: in vivo; conditions: BALB/c mice; for AUC / Cmax / half-life: mouse, plasma; for half-life: read-out: t½ (converted)
Method: In this example, the pharmacokinetic behavior of the compounds after intravenous injection (IV) and intragastric (PO) administration in BALB/c mice was tested.
On the day of administration, mice were weighed for actual body weight and the administration volume was calculated. Each compound was tested in two groups with 9 mice in each group; one group was subjected to administration by single intravenous injection, and the other group of mice was subjected to single intragastric administration. Whole blood samples were collected via the orbit at prescribed time points (0.25 h, 0.5 h, 1 h, 2 h, 4 h, 8 h, and 24 h after administration). After blood sample collection, the samples were immediately transferred to labeled commercial sample tubes containing K2-EDTA (0.85-1.15 mg), followed by centrifugation (3200×g, 4° C., 10 min) and plasma collection. The plasma was transferred to a pre-cooled centrifuge tube, frozen in dry ice, and then stored in an ultra-low temperature freezer at −60° C. or lower until the LC-MS/MS analysis.
Plasma concentrations were determined by the LC-MS/MS method. Plasma drug concentration data for the compounds were processed using a non-compartmental model in the WinNonlin Version 6.3 (Pharsight, Mountain View, CA) pharmacokinetic software. The relevant pharmacokinetic parameters were calculated by a linear-log trapezoidal method.

Compound	IC50 (OVCAR3 cells [1])	IC50 (OVCAR3 cells [2])	EC50 (HT-29 cells [3])	EC50 (HCT-116 cells [4])	IC50 (BT-549 cells)	IC50 (HT-29 cells [5])	IC50 (HCT-116 cells [6])	F ([7]; PO @30mpk)	AUC ([7]; 30 mg/kg, PO @30mpk)	Cmax ([7]; 30 mg/kg, PO @30mpk)	half-life ([7]; 30 mg/kg, PO @30mpk)	F ([7]; PO @5mpk)	AUC ([7]; 5 mg/kg, PO @5mpk)	Cmax ([7]; 5 mg/kg, PO @5mpk)	half-life ([7]; 5 mg/kg, PO @5mpk)
O=C(Nc1cc2ccccc2c(N2CCC(F)(F)CC2)n1)c1ccc(NS(=O)(=O)CCO)cc1N1CC2CCC(C2)C1 [Compound 9]	122 nM	–	–	–	–	–	–	–	–	–	–	–	–	–	–
O=C(Nc1cn2ccnc2c(N2CCC3(CC2)CC3)n1)c1ccc(NS(=O)(=O)CCO)cc1N1CCC2(CC1)CC2 [Compound 31]	67.6 nM	41.8 nM	64 nM	> 10000 nM	111 nM	93.8 nM	> 10000 nM	–	–	–	–	–	–	–	–
Cn1ncc2cc(NC(=O)c3ccc(NS(=O)(=O)CCO)cc3N3CC4CCC(C4)C3)nc(N3CCC(F)(F)CC3)c21 [Compound 55]	–	6.8 nM	4.6 nM	> 10000 nM	54.4 nM	12.7 nM	> 10000 nM	109%	380 µM·h	25.8 µM	7.8 h	–	–	–	–
O=C(Nc1csc(C2CCC(F)(F)CC2)n1)c1ccc(NS(=O)(=O)CCO)cc1N1CCC2(CC1)CC2 [Compound 1]	167 nM	–	–	–	–	–	–	–	–	–	–	–	–	–	–
CS(=O)(=O)Nc1ccc(C(=O)Nc2cn3ncnc3c(N3CCC(F)(F)CC3)n2)c(N2CC3CCC(C3)C2)c1 [Compound 53]	–	32.8 nM	26.7 nM	> 10000 nM	170 nM	44.7 nM	> 10000 nM	16%	78.3 µM·h	4.56 µM	13 h	–	–	–	–
CS(=O)(=O)Nc1ccc(C(=O)Nc2cc3nccnc3c(N3CCC(F)(F)CC3)n2)c(N2CC3CCC(C3)C2)c1 [Compound 72]	–	66.6 nM	72.4 nM	> 10000 nM	330 nM	141 nM	> 10000 nM	–	–	–	–	175%	66.3 µM·h	5.34 µM	6 h
Cc1cc(NC(=O)c2ccc(NS(=O)(=O)CCO)cc2N2CC3CC(C3)C2)nc(N2CCC(F)(F)CC2)n1 [Compound 4]	186 nM	–	–	–	–	–	–	–	–	–	–	–	–	–	–
O=C(Nc1nc(N2CCC(F)(F)CC2)nc2ccccc12)c1ccc(NS(=O)(=O)CCO)cc1N1CCC2(CC1)CC2 [Compound 2]	5220 nM	–	–	–	–	–	–	–	–	–	–	–	–	–	–
Cc1cc2nc(NC(=O)c3ccc(NS(=O)(=O)CCO)cc3N3CCC4(CC3)CC4)nc(N3CCC(F)(F)CC3)c2s1 [Compound 7]	2010 nM	–	–	–	–	–	–	–	–	–	–	–	–	–	–
O=C(Nc1cc2nccn2c(N2CCC(F)(F)CC2)n1)c1ccc(NS(=O)(=O)CCO)cc1N1CCC2(CC1)CC2 [Compound 16]	53 nM	–	94 nM	> 10000 nM	192 nM	338 nM	> 10000 nM	–	–	–	–	–	–	–	–
O=C(Nc1cn2c(F)cnc2c(N2CCC(F)(F)CC2)n1)c1ccc(NS(=O)(=O)CCO)cc1N1CC2CCC(C2)C1 [Compound 51]	–	26.1 nM	13.7 nM	> 10000 nM	54.7 nM	35.7 nM	> 10000 nM	67%	272 µM·h	14.2 µM	62.3 h	–	–	–	–
CS(=O)(=O)Nc1ccc(C(=O)Nc2cc3nn[nH]c3c(N3CCC(F)(F)CC3)n2)c(N2CCC3(CC2)CC3)c1 [Compound 68]	–	43.4 nM	90.1 nM	> 10000 nM	90.9 nM	157 nM	> 10000 nM	–	–	–	–	–	–	–	–
O=C(Nc1cc2nn[nH]c2c(N2CCC(F)(F)CC2)n1)c1ccc(NS(=O)(=O)CCO)cc1N1CC2CCC(C2)C1 [Compound 67]	–	13.9 nM	36.1 nM	> 10000 nM	61.8 nM	88.1 nM	> 10000 nM	–	–	–	–	–	–	–	–
CS(=O)(=O)Nc1ccc(C(=O)Nc2cc3cc[nH]c3c(N3CCC(F)(F)CC3)n2)c(N2CC3CCC(C3)C2)c1 [Compound 63]	–	10.1 nM	10.3 nM	> 10000 nM	33.7 nM	15.6 nM	> 10000 nM	–	–	–	–	–	–	–	–
